Legend:
[1] = tested on: MV4-11 (FLT3 ITD+/+ mutant type); assay: In vitro growth inhibition (GI50), MV4-11; assay type: cell-based, human; details: Homo sapiens, MV4-11; Cell lines of leukemia; read-out: GI 50 MV4-11 FLT3 (ITD +/+)
[2] = tested on: MOLM-13 (FLT3 ITD+/− mutant type); assay: In vitro growth inhibition (GI50), MOLM-13; assay type: cell-based, human; details: Homo sapiens, MOLM-13; Cell lines of leukemia; read-out: GI 50 MOLM-13 FLT3 (ITD+/−)
RS4; 11 (FLT3 wild type) = assay: In vitro growth inhibition (GI50), RS4; 11; assay type: cell-based, human; details: Homo sapiens, RS4-11; Cell lines of leukemia; read-out: GI 50 RS4: 11 FLT3 (WT)
[3] = tested on: K562 (FLT3 negative expression, positive expression of BCR-ABL fusion protein); assay: In vitro growth inhibition (GI50), K562; assay type: cell-based; details: Homo sapiens, Cell lines of leukemia, read-out: GI 50 K562 BCR-ABL
[4] = tested on: RAMOS (positive expression of Brutons tyrosine protein kinase); assay: In vitro growth inhibition (GI50), RAMOS; assay type: cell-based; details: Homo sapiens, Cell lines of leukemia, read-out: GI 50 Ramos BTK
U937 (FLT3 wild-type) = assay: In vitro growth inhibition (GI50), U937; assay type: cell-based; details: Homo sapiens, U-937; Cell lines of leukemia; read-out: GI 50 U937 FLT 3(WT)
[5] = tested on: Kasumi-1 (c-Kit N822K mutant type); assay: In vitro growth inhibition (GI50), Kasumi-1; assay type: cell-based; details: Homo sapiens, Cell lines of leukemia, read-out: GI 50 Kasumi-1 Kit (N822K)
Method in brief: (§1)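 Cells in RPMI1640 with 10% FBS, seeded at 5–10×10^4 cells/mL, exposed next day to compound at 5,000 nM down to 0.01 nM (2- or 10-fold dilutions, ≤1% solvent) for 3–5 days at 37 °C. CCK8 absorbance at 450 nm, growth rate relative to pre-treatment and solvent controls, GI50 from concentration–growth curve.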

[6] = tested on: KG-1 (expressing FGFR1OP2-FGFR1 fusion protein); assay: In vitro growth inhibition (GI50), KG-1; assay type: cell-based; details: Homo sapiens; Cell lines of leukemia; read-out: GI 50 KG-1 FGFR1OP 2-FGFR1
HL-60 (FLT3 wild type) = assay: In vitro growth inhibition (GI50), HL-60; assay type: cell-based; details: Homo sapiens, Cell lines of leukemia, read-out: GI 50 HL60 FLT3 (WT)
Method in brief: as §1

[7] = tested on: OCI-AML3 (NPMc+ mutant type); assay: In vitro growth inhibition (GI50), OCI-AML3; assay type: cell-based; details: Homo sapiens, OCI-AML-3; Cell lines of leukemia; read-out: GI 50 OCI- AML3 NPMc+

Row | Structure (SMILES) | GI50 [1] [nM] | GI50 [2] [nM] | GI50 (RS4; 11 (FLT3 wild type)) [nM] | GI50 [3] [nM] | GI50 [4] [nM] | GI50 (U937 (FLT3 wild-type)) [nM] | GI50 [5] [nM] | GI50 [6] [nM] | GI50 (HL-60 (FLT3 wild type)) [nM] | GI50 [7] [nM]
1 | CN1CCN(CCCOc2ccc3c(c2)ncn3-c2ccc(NC(=O)n3nc(C(C)(C)C)cc3N)cc2)CC1 [Compound 118, 5-amino-3-tert-butyl-pyrazol-1-carboxylic acid (4-{5-[3-(4-methyl-piperazin-1-yl)-propoxyl]-benzimidazol-1-yl}-phenyl)-amide] | 1 to 10 | 1 to 10 | > 1000 | > 1000 | > 1000 | > 1000 | > 1000 | > 1000 | > 1000 | > 1000
2 | CC(C)COc1ccc2c(c1)ncn2-c1ccc(NC(=O)Nc2cc(C(C)(C)C)n[nH]2)cc1 [Compound 76, 1-(5-tert-butyl-2H-pyrazol-3-yl)-3-[4-(5-isobutoxy-benzimidazol-1-yl)-phenyl]-urea] | 1 to 10 | 1 to 10 | > 1000 | > 1000 | > 1000 | > 1000 | > 1000 | > 1000 | > 1000 | > 1000
3 | CC(C)c1cc(NC(=O)Nc2ccc(-n3cnc4ccccc43)cc2)on1 [Compound 132, 1-(4-benzimidazol-1-yl-phenyl)-3-(3-isopropyl-isoxazol-5-yl)-urea] | 10 to 100 | 10 to 100 | > 1000 | > 1000 | > 1000 | > 1000 | > 1000 | > 1000 | > 1000 | 100 to 1000
4 | CN(C)CCOc1ccc2c(c1)ncn2-c1ccc(NC(=O)Nc2cc(C(C)(C)C)on2)cc1 [Compound 20, 1-(5-tert-butyl-isoxazol-3-yl)-3-{4-[5-(2-dimethylamino-ethoxyl)-benzimidazol-1-yl]-phenyl}-urea] | 0.1 to 1 | 0.1 to 1 | > 1000 | > 1000 | > 1000 | > 1000 | > 1000 | > 1000 | > 1000 | > 1000
5 | O=C(Nc1ccc(-n2cnc3ccccc32)cc1)Nc1cc(C2CC2)n[nH]1 [Compound 66, 1-(4-benzimidazol-1-yl-phenyl)-3-(5-cyclopropyl-2H-pyrazol-3-yl)-urea] | 10 to 100 | 10 to 100 | > 1000 | > 1000 | > 1000 | > 1000 | > 1000 | > 1000 | > 1000 | > 1000
6 | Cc1ccc2ncn(-c3ccc(NC(=O)Nc4cc(C(C)(C)C)on4)cc3)c2n1 [Compound 54, 1-(5-tert-butyl-isoxazol-3-yl)-3-[4-(5-methylimidazo[4,5-b]pyridine-3-yl)-phenyl]-urea] | 1 to 10 | 1 to 10 | > 1000 | > 1000 | > 1000 | > 1000 | > 1000 | > 1000 | > 1000 | > 1000
7 | CCOc1ccc2c(c1)ncn2-c1ccc(NC(=O)Nc2cc(C(C)(C)C)n[nH]2)cc1 [Compound 72, 1-(5-tert-butyl-2H-pyrazol-3-yl)-3-[4-(5-ethoxyl-benzimidazol-1-yl)-phenyl]-urea] | 0.1 to 1 | 0.1 to 1 | > 1000 | > 1000 | > 1000 | > 1000 | > 1000 | > 1000 | > 1000 | > 1000
8 | CCCCCCOc1ccc2c(c1)ncn2-c1ccc(NC(=O)Nc2cc(C(C)(C)C)n[nH]2)cc1 [Compound 73, 1-(5-tert-butyl-2H-pyrazol-3-yl)-3-[4-(5-hexyloxyl-benzimidazol-1-yl)-phenyl]-urea] | 0.1 to 1 | 0.1 to 1 | > 1000 | > 1000 | > 1000 | > 1000 | > 1000 | > 1000 | > 1000 | > 1000
9 | CC(C)(C)c1cc(NC(=O)Nc2ccc(-n3cnc4cc(OCCN5CCCCC5)ccc43)cc2)[nH]n1 [Compound 90, 1-(5-tert-butyl-2H-pyrazol-3-yl)-3-{4-[5-(2-piperidin-1-yl-ethoxyl)-benzimidazol-1-yl]-phenyl}-urea] | 0.1 to 1 | 0.1 to 1 | > 1000 | > 1000 | > 1000 | > 1000 | > 1000 | > 1000 | > 1000 | > 1000
10 | Cc1cc(NC(=O)Nc2ccc(-n3cnc4ccccc43)cc2)n[nH]1 [Compound 64, 1-(4-benzimidazol-1-yl-phenyl)-3-(5-methyl-1H-pyrazol-3-yl)-urea] | 100 to 1000 | 100 to 1000 | > 1000 | > 1000 | > 1000 | > 1000 | > 1000 | 100 to 1000 | > 1000 | > 1000
11 | CC(C)(C)c1cc(NC(=O)Nc2ccc(-n3ccc4ccccc43)cc2)no1 [Compound 44, 1-(5-tert-butyl-isoxazol-3-yl)-3-(4-indol-1-yl-phenyl)-urea] | > 1000 | > 1000 | > 1000 | > 1000 | > 1000 | > 1000 | > 1000 | > 1000 | > 1000 | > 1000
12 | CC(C)(C)c1cc(NC(=O)Nc2ccc(-n3cnc4cc(OCC5CCCO5)ccc43)cc2)no1 (centres unmarked) [Compound 10, 1-(5-tert-butyl-isoxazol-3-yl)-3-{4-[5-(tetrahydrofuran-2-ylmethoxy)-benzimidazol-1-yl]-phenyl}-urea] | 0.1 to 1 | 0.1 to 1 | > 1000 | > 1000 | > 1000 | > 1000 | > 1000 | > 1000 | > 1000 | > 1000
13 | CC(C)(C)c1cc(NC(=O)Nc2ccc(-n3cnc4cc(OC(F)(F)F)ccc43)cc2)[nH]n1 [Compound 84, 1-(5-tert-butyl-2H-pyrazol-3-yl)-3-[4-(5-trifluoromethoxy-benzimidazol-1-yl)-phenyl]-urea] | 0.1 to 1 | 0.1 to 1 | > 1000 | > 1000 | > 1000 | > 1000 | > 1000 | > 1000 | > 1000 | > 1000
14 | Cc1cc(NC(=O)Nc2ccc(-n3cnc4ccccc43)cc2)no1 [Compound 2, 1-(4-benzimidazol-1-yl-phenyl)-3-(5-methyl-isoxazol-3-yl)-urea] | > 1000 | > 1000 | > 1000 | > 1000 | > 1000 | > 1000 | > 1000 | > 1000 | > 1000 | > 1000
15 | CN(C)CCN(C)c1ccc2ncn(-c3ccc(NC(=O)Nc4cc(C(C)(C)C)on4)cc3)c2c1 [Compound 28, 1-(5-tert-butyl-isoxazol-3-yl)-3-(4-{6-[(2-dimethylamino-ethyl)-methyl-amino]-benzimidazol-1-yl}-phenyl)-urea] | 1 to 10 | 1 to 10 | > 1000 | > 1000 | > 1000 | > 1000 | > 1000 | > 1000 | > 1000 | > 1000
16 | CC1(COc2ccc3c(c2)ncn3-c2ccc(NC(=O)Nc3cc(C(C)(C)C)on3)cc2)COC1 [Compound 9, 1-(5-tert-butyl-isoxazol-3-yl)-3-{4-[5-(3-methyl-oxetan-3-ylmethoxy)-benzimidazol-1-yl]-phenyl]urea] | 0.1 to 1 | 0.1 to 1 | > 1000 | > 1000 | > 1000 | > 1000 | > 1000 | > 1000 | > 1000 | > 1000
17 | CC(C)(C)c1cc(NC(=O)Nc2ccc(-n3cnc4cc(OCCCCc5nnnn5C5CCCCC5)ccc43)cc2)[nH]n1 [Compound 94, 1-(5-tert-butyl-2H-pyrazol-3-yl)-3-(4-{5-[4-(1-cyclohexyl-1H-tetrazol-5-yl)-butoxy]-benzimidazol-1-yl}-phenyl)-urea] | 1 to 10 | 1 to 10 | > 1000 | > 1000 | > 1000 | > 1000 | > 1000 | > 1000 | > 1000 | > 1000

From patent US10647680B2, “Urea compound, preparation method therefor and medical use thereof” (Ancureall Pharmaceutical (Shanghai) Co., Ltd., priority 2016, dated 2020)
